For experiment [1], the system named is Renca (renal carcinoma) cells. Nature of the experiment: Renal cell carcinoma (Renca) tumor model in mice: survival and tumor growth. The settings on record: co-administration of immune stimulating complex (ISCOMATRIX adjuvant) with ODN 7909, compared with either agent alone.
Procedure: • Mice: All experiments were carried out using female BALB/c mice aged 6-8 weeks with 10 mice per experimental or control group. • Oligonucleotides: All oligonucleotides were obtained from Coley Pharmaceutical GmbH, Langenfeld, Germany. • Immune stimulating complexes: ISCOMATRIX® adjuvant, herein referred to as IMX, was the immune stimulating complex used in these Examples.
Female BALB/c mice (n=10 per group) were injected with 2×10^5 Renca (renal carcinoma) cells by SC injection into the left flank. Animals were treated with CpG 7909 alone, ISCOMATRIX® (IMX) alone or a combination of CpG 7909 and INIX administered by SC injection into the tumor perimeter weekly from day 10-28 post tumor cell injection. Control animals were injected with 100 μl of phosphate buffered saline (PBS) weekly from day 10-38 post tumor cell injection. Animals were monitored for survival (FIG. 1, panel A) and tumor growth (FIG. 1, panel B). Tumor size (length and width) was measured using a digital vernier calliper. Tumor volume was calculated by using the formula: Tumor volume=(0.4) (ab2), where a=large diameter and b=smaller diameter. In the tumor volume graph (FIG. 1, panel B), changes in average tumor volume are indicated until 50% death in each animal group.
In experiment [2] the test system is murine cancer models. The settings on record: cited from earlier work.

For “TCGTCGTTTTGTCGTTTTGTCGTT [CpG 7909]”, in experiment [1], the survival result was “increased survival” and the tumor growth result is reported as “controlled tumor growth better than did either agent alone”. Moreover, in experiment [2] (several murine cancer models, demonstrated previously), the anti-tumor effects entry is “demonstrated previously”. Further, in experiment [2] (shown previously), the “effect on anti-tumor effects of chemotherapeutic drugs” value is recorded as “augment the anti-tumor effects of some chemotherapeutic drugs”.

The values above are taken from US20070129320A9, “Methods and compositions for inducing innate immune responses” (Coley Pharmaceutical Group, Ltd., priority 2004, published 2007).
